Columns and labels:
CF rabbits [1] = test: Intravenous glucose tolerance test (IVGTT) in CF rabbits treated with LX4211; type: in vivo, rabbit; conditions: FIG. 1
Experimental: (§1) ) has beneficial effects on treating CF, 5 CF rabbits were daily gavaged with LX4211 (15 mg/kg/day) for 4 weeks. The intravenous glucose tolerance test (IVGTT) and insulin tolerance test (ITT) were performed before treatment and at 4 weeks after treatment. Urine was collected daily to assess urinary glucose excretion. Blood was collected biweekly for the analysis of chemical panels including glucose, insulin, liver function, kidney function, lipid profiles and electrolytes. At the end of the experiment, the organ tissues of CF rabbits were collected for histology staining.

CF rabbits [2] = test: Urinary glucose excretion in CF rabbits treated with LX4211; type: in vivo, rabbit; conditions: 15 mg/kg/day daily gavage
Experimental: as §1

CF rabbits [3] = test: Blood chemical panels in CF rabbits treated with LX4211; type: in vivo, rabbit
Experimental: as §1
Abnormalities of serum ALP, CPK and Calcium were also detected in CF rabbits.

CF rabbits [4] = type: in vivo, rabbit
Experimental: as §1
Because most CF rabbits eventually die of gut obstruction for which abdominal hardening (which can be felt by palpation) has been used as a clinical sign, such softening may indicate beneficial effects on alleviating GI obstruction, although further studies are needed to confirm this predication.

CF rabbits [5] = test: Survival length of CF rabbits treated with LX4211; type: in vivo, rabbit; conditions: FIG. 3
WT rabbits = test: Urine sugar levels in WT rabbits after Sota treatment; type: in vivo, rabbit; conditions: WT rabbits (n=2)
Experimental: Experiments were conducted that first examined the physiological responses of rabbits to Sota by measuring the urine sugar levels to assess urinary glucose excretion (FIG. 9). Sota was given to WT rabbits (n=2) daily for five days. […] This confirmed that rabbits respond to Sota similarly as rodents and human patients.

CF rabbits [6] = test: IVGTT in CF rabbits prior to and after Sota treatment; type: in vivo, rabbit; conditions: CF rabbits (n=6), 15 mg/kg/day daily gavage 4 weeks, vs non-treatment, FIGS. 10B & C
Experimental: Experiments were conducted that next proceeded to treat CF rabbits (n=6) with Sota (15 mg/kg/day) by daily gavage for 4 weeks (FIG. 10A). The IVGTT test was performed prior to and 4 weeks after treatment.

CF rabbits [7] = test: Blood chemistry of CF rabbits treated with Sota for 10 weeks; type: in vivo, rabbit; conditions: 5 CF rabbits treated 10 weeks vs untreated control group, FIG. 11
Text: It is known that many CF patients show abnormalities in their blood chemistry tests. Blood chemistry in CF rabbits was also examind. In one study, blood was collected from 5 CF rabbits for the analysis of chemical panels including electrolytes, glucose and other metabolic parameters, and compared with those of WT rabbits (n=15). CF rabbits presented many abnormalities in metabolic parameters including lower serum potassium (WT 4.35±0.25 vs. CF 3.14±0.3, p<0.05), higher triglyceride (WT 75.8±69.5 vs. CF 447.0±76.6, p<0.05), cholesterol (WT 31.6±9.76 vs. CF 177.2±206.3, p<0.05) and glucose (WT 110.4±9.99 vs. CF 160.6±37.5, p<0.05). Abnormalities of serum ALP, CPK and Calcium were also detected in CF rabbits.
To evaluate if Sota has any effects on the blood chemistry parameters of CF rabbits, experiments were conducted wherein 5 CF rabbits were treated with Sota for 10 weeks.

CF rabbits [8] = test: Lifespan (survival curve) of Sota-treated CF rabbits; type: in vivo, rabbit; conditions: treatment starting on Day 49 of age
Text: This is further supported by the elongated lifespan of Sota-treated CF rabbits. […] These findings indicate that contrary to the beliefs by many, the SGLT inhibitor drugs are indicative of bringing benefits with minimal risks to CF patients.

[9] = rabbit, in vivo

Substance: Sotagliflozin [LX4211]
- glucose tolerance (CF rabbits [1]; CF rabbits, 15 mg/kg/day, before vs 4 weeks after treatment): restored glucose tolerance
- GTT response of one CF rabbit with signs of CF related diabetes (CFRD) (CF rabbits [1]; one CF rabbit, prior to vs after treatment): restored to normal
- urine glucose levels (CF rabbits [2]): spiked starting D1 after the treatment
- CPK (CF rabbits [3]; 15 mg/kg/day, FIG. 4): significant rescue effects
- Calcium (CF rabbits [3]; 15 mg/kg/day, FIG. 4): significant rescue effects
- cholesterol (CF rabbits [3]; 15 mg/kg/day, FIG. 4): significant rescue effects
- triglyceride (CF rabbits [3]; 15 mg/kg/day, FIG. 4): significant rescue effects
- hyperglycemia (glucose) (CF rabbits [3]; 15 mg/kg/day, FIG. 4, FIG. 5): significantly attenuated
- hypokalemia (serum potassium) (CF rabbits [3]; 15 mg/kg/day, FIG. 4, FIG. 5): significantly attenuated
- ALB (Albumin) (CF rabbits [3]; FIG. 6): restored
- TPRO (Total Protein) (CF rabbits [3]; FIG. 6): restored
- daily abdominal palpation (CF rabbits [4]; CF rabbits, 15 mg/kg/day daily gavage, abdominal hardening is a clinical sign of gut obstruction): softening of the abdominal
- adverse response to treatment (CF rabbits [4]; rabbit, in vivo, 15 mg/kg/day): no obvious adverse response
- survival length (CF rabbits [5]): improved survival length
- urine sugar level upon retrieval of the drug (WT rabbits; D7, FIG. 9): immediately returned to normal
- urine sugar level during treatment (WT rabbits; daily for five days, D1-D5, FIG. 9): spike of urine sugar level was seen the second day (D1) and remained high during the treatment days
- blood glucose elimination rate (IVGTT) (CF rabbits [6]): significantly higher
- ALP (CF rabbits [7]): significantly improved
- CPK (CF rabbits [7]): significantly improved
- Chol (CF rabbits [7]): significantly improved
- Glucose (CF rabbits [7]): significantly improved
- K+ (CF rabbits [7]): significantly improved
- Trig (CF rabbits [7]): significantly improved
- median lifespan (CF rabbits [8]; CF rabbits (n=10), FIG. 12 right panel): > 150 days
- number of treated CF rabbits that lived beyond 150 days (CF rabbits [8]; of n=10 CF rabbits): 6
- weight gain [9]: gained weight at a similar rate
